We go through one substance from patent US20250289897A1, “LEPTIN RECEPTOR AGONISTIC ANTIBODY AS MONO OR COMBO THERAPIES TO TREAT OBESITY” (ELI LILLY AND COMPANY, priority 2024, published 2025).

A word on the EC50: it is the concentration at which the effect is half-maximal.

In assay [1] the test system is cyno-LEPR. The assay is described as follows: STAT3-luciferase reporter assay in HEK293-STAT3Luc-cmLepR2 cells. Format: cell-based, Macaca fascicularis. The source says:
(§1) LEPR is a cell surface single-pass transmembrane receptor. Activation of LEPR leads to phosphorylation of intracellular STAT3 (pSTAT3) and subsequent target gene transcription. To measure LEPR activation by anti-LEPR antibodies in the present disclosure, five independent STAT-luciferase reporter cell lines were established by introducing DNA plasmids encoding full-length LEPR of different species and STAT3-luciferase reporter gene into HEK293 cells (Table 4). […]
(§2) Before plating the cells for luciferase assays, the poly-D-Lysine coated 96-well plates (Corning Inc, #354651) were rinsed once with phosphate buffered solution (PBS). […] Cell lysing and One-Glo luciferase substrate solution (Promega, #E6120) were then added to each well, and relative luciferase units (RLUs) were measured on a ClarioStar plate reader. For each reporter cell line, positive control LEPR activation was calculated as the average RLUs stimulated by 20 nM recombinant human leptin protein (SEQ ID NO:27) minus the average RLUs of unstimulated cells and was set as maximum LEPR activation (100%). […]

Assay [2] has as its system canine-LEPR. The assay is described as follows: STAT3-luciferase reporter assay in HEK293-STAT3Luc-dLepR7 cells. The format is cell-based, Canis lupus.
Source text: as §1, §2
On the technique in general: A reporter such as luciferase makes a cellular process visible.

Assay [3] addresses T1, rat-LEPR (Rattus norvegicus, UniProt Q62959).
T1 construct: introducing DNA plasmids encoding full-length LEPR of different species and STAT3-luciferase reporter gene into HEK293 cells; expressed in transfected cells; host or cells: HEK293 (HEK293-STAT3Luc-ratLepR3)
T1 sequence (Q62959 22-1162): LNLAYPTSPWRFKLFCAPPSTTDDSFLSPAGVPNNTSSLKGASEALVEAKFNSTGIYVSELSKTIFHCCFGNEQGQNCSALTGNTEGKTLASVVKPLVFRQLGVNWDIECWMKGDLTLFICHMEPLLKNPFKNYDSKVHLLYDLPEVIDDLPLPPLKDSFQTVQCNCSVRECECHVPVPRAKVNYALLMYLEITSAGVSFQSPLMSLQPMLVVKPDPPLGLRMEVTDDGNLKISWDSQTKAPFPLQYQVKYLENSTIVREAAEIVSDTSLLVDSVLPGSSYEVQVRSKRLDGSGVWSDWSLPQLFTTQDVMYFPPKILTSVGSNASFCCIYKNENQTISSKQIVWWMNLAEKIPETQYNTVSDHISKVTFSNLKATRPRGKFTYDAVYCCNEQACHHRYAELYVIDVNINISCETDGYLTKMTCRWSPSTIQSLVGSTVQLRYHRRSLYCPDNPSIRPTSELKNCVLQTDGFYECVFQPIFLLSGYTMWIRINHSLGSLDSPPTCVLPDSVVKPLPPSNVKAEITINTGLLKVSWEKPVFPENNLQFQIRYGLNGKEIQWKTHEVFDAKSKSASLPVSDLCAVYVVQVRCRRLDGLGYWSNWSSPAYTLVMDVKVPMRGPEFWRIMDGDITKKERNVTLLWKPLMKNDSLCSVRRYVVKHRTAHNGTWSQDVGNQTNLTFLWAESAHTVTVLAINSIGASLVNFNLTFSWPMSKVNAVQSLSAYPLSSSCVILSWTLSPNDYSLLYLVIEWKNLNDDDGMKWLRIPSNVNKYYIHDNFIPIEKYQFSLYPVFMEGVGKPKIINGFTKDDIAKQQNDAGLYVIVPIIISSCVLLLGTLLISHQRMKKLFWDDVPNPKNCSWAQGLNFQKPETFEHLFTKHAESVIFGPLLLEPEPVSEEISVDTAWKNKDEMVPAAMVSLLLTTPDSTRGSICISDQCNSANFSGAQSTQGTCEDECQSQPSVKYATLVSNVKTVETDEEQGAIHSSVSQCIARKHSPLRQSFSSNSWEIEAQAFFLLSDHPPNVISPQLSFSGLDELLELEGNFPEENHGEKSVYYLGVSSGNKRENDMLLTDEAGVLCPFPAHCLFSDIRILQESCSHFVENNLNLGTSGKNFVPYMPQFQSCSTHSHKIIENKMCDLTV
Put plainly: STAT3-luciferase reporter assay in HEK293-STAT3Luc-ratLepR3 cells. The format is cell-based.
Source text: as §1, §2

Where [4] appears, read: STAT3-luciferase, 20 hours, read-out: EC50 (nM) ± SEM.
[5] abbreviates: top of fitted curve vs response to 20 nM recombinant human leptin.

In the case of “human leptin: recombinant human leptin protein (SEQ ID NO:27), positive control”, the EC50 in assay [1] (setting [4]) came out at 0.674 ± 0.11 nM; in assay [2] (setting [4]) it was 0.582 ± 0.172 nM; in assay [3] (antibodies at concentrations up to 90 nM, read-out: EC50 (nM) ± SEM), 6.29 ± 0.62 nM. The “Agonism (%) ± SEM” value in assay [1] (setting [5]) is listed as 106.34%; in assay [2] (setting [5]), 107.5%; in assay [3] (vs 20 nM recombinant human leptin, antibodies up to 90 nM), 106.1%.
